Data: article PMC7039746 (Cancer chemotherapy and pharmacology, 2020)

Target: EcPNP (Escherichia coli purine nucleoside phosphorylase) (Escherichia coli, UniProt P0ABP8)
Settings: phosphate co-substrate (50 mM potassium phosphate), 100 mM HEPES pH 7.4, 25 °C

Sequence of EcPNP (Escherichia coli purine nucleoside phosphorylase) (P0ABP8 2-239): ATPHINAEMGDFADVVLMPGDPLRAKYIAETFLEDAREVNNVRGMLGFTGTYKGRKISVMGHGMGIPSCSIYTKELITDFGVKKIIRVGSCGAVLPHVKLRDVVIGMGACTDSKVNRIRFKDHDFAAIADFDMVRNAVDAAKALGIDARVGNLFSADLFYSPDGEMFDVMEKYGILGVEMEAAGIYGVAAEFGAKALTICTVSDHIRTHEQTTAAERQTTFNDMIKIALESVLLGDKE

## Nc1nc(F)nc2c1ncn2[C@@H]1O[C@H](CO)[C@@H](O)[C@@H]1O [F-araA, 9-β-D-arabinofuranosyl-2-F-adenine]
  Km: ~950 µM
